Results published in patent publication US10092566B2, “Composition for controlling a gut immunity and use thereof” (SEOUL NATIONAL UNIVERSITY R&DB FOUNDATION, priority 2013, dated 2018).
Entries after “also recorded” stand apart in the source; their conditions may differ.

Assays:
Drosophila S2 cells = assay: Measurement of intracellular calcium (fura-2); assay type: cell-based; settings: uracil 20 nM
Experimental: Intracellular Ca^2+ was measured by the method disclosed in the previous research (Rosker et al., J Biol Chem 279, pp. 13696-13704, 2004). Briefly speaking, Drosophila S2 cells (approx. 10^8 cells) were loaded with pH 7.4 buffer containing 10 mM glucose, 140 mM NaCl, 1 mM CaCl2, 5 mM KCl, 1 mM MgCl2, and 10 mM HEPES and the solution was treated with […] fura-2-acetoxymethyl ester for 40 minutes at room temperature. The cells were washed twice with pH 7.4 Ca^2+ chelating buffer containing 10 mM glucose, 140 mM NaCl, 1 mM EDTA, 1 mM EGTA, 5 mM KCl, 1 mM MgCl2, and 10 mM HEPES, and were re-suspended in the same buffer. Then, 20 nM of uracil was added to the cells. Fluorescence was continuously recorded at an interval of 0.5 seconds (excitation at 340 nm and 380 nm; emission at 510 nm) by fluorescent spectrophotometer (Shimadzu, Tokyo, Japan) at room temperature.

Ce-DUOX1 = assay: ROS (DUOX-dependent H2O2) measurement in C. elegans; assay type: in vivo; settings: uracil-containing media, 2 hours
Source text: C. elegans were raised and maintained as disclosed in the previous research (Chavez et al., Infect Immun 77, pp. 4983-4989, 2009). As disclosed in the previous research, L1 nematodes were fed with bacteria containing Ce-DUOX1-RNAi vectors throughout the step L4 to introduce Ce-DUOX1-RNAi (Chavez et al., Infect Immun 77, pp. 4983-4989, 2009). Standard feeding system RNAi process using Ce-DUOX1-RNAi may cause a developmental disability which indicates a serious level of mortality. As disclosed in the previous research, to give a partial knock-down effect, Ce-DUOX1-RNAi bacteria were mixed with bacteria containing control RNAi at a ratio of 1:70. In the early adult stage, nematodes were obtained and washed with M9 minimal media. Nematodes (about 200 to 300 individuals) were placed in a 96-well plate comprising uracil-containing media ([…]) at 20° C. for 2 hours.
DUOX-dependent H2O2, as basically disclosed in the previous research (Chavez et al., Infect Immun 77, pp. 4983-4989, 2009), was measured at room temperature for 2 hours following addition of […] of Amplex UltraRed solution (Invitrogen) and […] of reacting buffer including 0.2 units/mL of horseradish peroxidase (Sigma). Fluorescence of each sample was measured by fluorescent microplate readers at 530 nm of excitation wavelength and 590 nm of emission wavelength. […]

Upd3-JAK-STAT pathway = assay: Epithelial cell renewal program and Upd3-JAK-STAT reporter analysis; assay type: in vivo, Drosophila
Experimental: To examine a renewal program for epithelial cells, a 5% sucrose solution containing 20 nM of uracil (for 16 hours) or different bacteria (approx. 5×10^8 cells; E. carotovora, E. carotovora-pyrE::Tn5 and E. carotovora-pyrE::Tn5-pyrE for 22 hours) was orally administered to genetically different adult Drosophila (5 to 6 days old). For the recovery experiment, Drosophila coingested URA− strain (E. carotovora-pyrE::Tn5) and 1 nM of uracil. Following the dissection of the gut, the gut was treated with primary antibodies [anti-phospho-histone H3 (1:2000 dilution; Millipore), anti-LacZ (1:1000 dilution; Cappel), or anti-Prospero (1:100 dilution; Developmental Studies Hybridoma Bank)]. Then, the gut was treated with secondary antibodies (Alexa Fluor 568 goat anti-rabbit IgG or Alexa Fluor 488 goat anti-murine IgG (Invitrogen)). DAPI was used for nuclear staining.
Drosophila containing esg-GAL4> UAS-GFP were used to analyze ISC proliferation and differentiation. A 5% sucrose solution containing 20 nM of uracil (for 16 hours) or different bacteria (E. carotovora, E. carotovora-pyrE::Tn5, and E. carotovora-pyrE::Tn5-pyrE, approx. 5×10^8 cells, for 22 hours) was orally administered to Drosophila (5 to 6 days old). For the recovery experiment, Drosophila coingested a URA− strain (E. carotovora-pyrE::Tn5) and 1 nM of uracil. […]

germ-free Drosophila = assay: Survival duration of germ-free flies on uracil-containing media; assay type: in vivo
Source text: Control Drosophila and PLCβ-DUOX pathway-mediated mutated Drosophila (PLCβ^−/− and DUOX-RNAi) were used in the experiment. It is known that PLCβ^−/− and DUOX-RNAi flies have a short life span under conventional rearing conditions but a normal life span under germ-free conditions (Ha et al., Nat Immunol 10, pp. 949-957, 2009). Therefore, to examine the effects of uracil on the survival rate of genetically different Drosophila, germ-free animals were used. Germ-free animals were reared in germ-free media containing 1 nM of uracil. Germ-free animals were moved to a newly sterilized bottle that had germ-free media containing uracil every 4 or 5 days. Drosophila remained germ-free throughout the entire experimental processes.

gut cells = settings: in vivo
Experimental: To measure cell apoptosis in gut cells caused by a long-term exposure to uracil, genetically different germ-free adult Drosophila (5 to 6 days old) were maintained on the standard corn meal agar media with a supplemental 1 nM of uracil for 20 days.
Midguts of female Drosophila (20 days old) collected above were used for the analysis of cell apoptosis. Midguts were dissected in PBS, and cell apoptosis analysis was conducted by terminal deoxynucleotidyl transferase (TdT)-mediated dUDP nick end labeling method as disclosed in the previous research (Ryu et al., Science 319, pp. 777-782, 2008).
The cell apoptotic index was indicated by dividing the number of apoptotic cells with respect to the total number of cells and multiplying the value by 100.

O=c1cc[nH]c(=O)[nH]1 [uracil]
Ca2+ mobilization (Drosophila S2 cells): Ca^2+ mobilization | DUOX-dependent ROS generation in C. elegans (Ce-DUOX1): able to activate DUOX-dependent ROS generation | restoration of infection-induced Upd3-JAK-STAT signaling, ISC proliferation, differentiation and enteroblast accumulation (Upd3-JAK-STAT pathway; coingestion of 1 nM uracil with URA− strain E. carotovora-pyrE::Tn5): sufficient to restore | Upd3-JAK-STAT pathway activation and epithelial cell renewal by uracil ingestion alone (Upd3-JAK-STAT pathway; uracil 20 nM, PLCβ-dependent): sufficient to trigger | host lethality / mortality after long-term ingestion of uracil (germ-free Drosophila; germ-free control flies, uracil-containing vs normal food): lethality of control flies in a dose-dependent manner; also recorded: statistically significant difference in mortality | uracil-induced host pathology in PLCβ−/− or DUOX-RNAi flies (germ-free Drosophila; in vivo): completely absent | gut cell apoptosis after long-term ingestion of uracil (gut cells): Extensive apoptosis in gut cells
